Patent publication US7704948B2, “Pharmaceutical composition” (Euro-Celtique S.A., priority 2001, dated 2010)

How the values were obtained:
[1] = Stability of bisacodyl in poloxamer melt; type: physicochemical; conditions: hot melt of bisacodyl and poloxamer
Source text: Such a product will have advantages with regard to dosage form and other properties. […] Furthermore production scale enteric coating of capsules containing a low melting point, waxy, solid is very difficult due to melting and leakage or softening and deformation of the waxy, low melting point poloxamer.

[2] = cited from earlier work

stability of bisacodyl in poloxamer [1]: unstable in poloxamer
SMILES: CC(=O)Oc1ccc(C(c2ccc(OC(C)=O)cc2)c2ccccn2)cc1 [Bisacodyl]
time to action in the large intestine ([2]; following oral administration): 6 to 12 h | onset of action ([2]; suppositories): 20 to 60 min
